Test results as given in article PMC3480206 (Future microbiology, 2012).
Like-named read-outs stand apart in the source and are kept apart here.

Legend:
[1] = system: Mycobacterium tuberculosis H37Rv; experiment: In vitro drug interaction, checkerboard titration by 96-well microdilution; assay type: cell-based
Mtb [2] = settings: EBA study; cited from earlier work
[3] = system: Mtb gene clusters GC82 and GC120, iniBAC operon; settings: cited from earlier work
Mtb [4] = settings: cited from earlier work
Mtb [5] = settings: at its MIC and at doses used to treat adult pulmonary TB; cited from earlier work
Mtb [6] = settings: cited from earlier work; remark: listed apart in the source
Mtb [7] = settings: cited from earlier work; remark: listed apart in the source
[8] = PK evaluation on coadministration with second-line drugs; settings: mice, SQ109 and MXF coadministered
Mtb [9] = settings: cited from earlier work; remark: listed apart in the source
[10] = system: Mycobacterium tuberculosis H37Rv; settings: cited from earlier work
[11] = in vivo; cited from earlier work
Mtb [12] = settings: versus linezolid; cited from earlier work
Mtb [13] = settings: in vitro; cited from earlier work
Mtb [14] = settings: mouse model of TB; cited from earlier work
Mtb [15] = settings: cited from earlier work; remark: listed apart in the source

Question: Which MIC ([1]; Mycobacterium tuberculosis, H37RV, read-out: MIC Alone) does the source give for `CC(C)/N=c1\cc2n(-c3ccc(Cl)cc3)c3ccccc3nc-2cc1Nc1ccc(Cl)cc1` [CFZ, Clofazimine, reference compound] here?
Answer: 0.5 mg/L

Question: What about the “MIC Combination” value ([1]; checkerboard SQ109 + CFZ, Mtb H37Rv) of the same compound?
Answer: 0.062 mg/L

Question: For `C[C@]1(COc2ccc(N3CCC(Oc4ccc(OC(F)(F)F)cc4)CC3)cc2)Cn2cc([N+](=O)[O-])nc2O1` [Delamanid], which early bactericidal activity (Mtb [2]) is on record?
Answer: showed activity

Question: For `CC[C@@H](CO)NCCN[C@@H](CC)CO` [EMB, ethambutol], which “Activity on Mtb gene clusters GC82 and GC120” value [3] is on record?
Answer: Upregulates

Question: And the “Effect on acid-fastness of Mtb” value (Mtb [4])?
Answer: Decreases

Question: What about the bacteriostatic or bactericidal (Mtb [5]) of the same compound?
Answer: bacteriostatic

Question: And the “MIC on Mtb” value (Mtb [6])?
Answer: 5 to 7 mg/L

Question: For `COc1c(N2C[C@@H]3CCCN[C@@H]3C2)c(F)cc2c(=O)c(C(=O)O)cn(C3CC3)c12` [MXF, moxifloxacin, reference compound], which “activity in mouse models” value (Mtb [7]) is on record?
Answer: comparable to INH

Question: What about the “pharmacology profile on coadministration” value [8] of the same compound?
Answer: not affected

Question: For `Cc1ncc([N+](=O)[O-])n1CCO` [Metronidazole], which “efficacy in mouse models of latent TB” value (Mtb [9]) is on record?
Answer: not effective

Question: With `O=[N+]([O-])c1cn2c(n1)OC[C@@H](OCc1ccc(OC(F)(F)F)cc1)C2` [PA-824] as the compound, how does the early bactericidal activity (Mtb [2]) read?
Answer: showed activity

Question: With `CO[C@H]1/C=C/O[C@@]2(C)Oc3c(C)c(O)c4c(O)c(c(/C=N/N5CCN(C)CC5)c(O)c4c3C2=O)NC(=O)/C(C)=C\C=C\[C@H](C)[C@H](O)[C@@H](C)[C@@H](O)[C@@H](C)[C@H](OC(C)=O)[C@@H]1C` [RIF, rifampicin, reference compound] as the compound, how does the “improvement of RIF activity” value [10] read?
Answer: eightfold

Question: Which safety profile [11] does the source give for `CC(=O)NC[C@H]1CN(c2ccc(N3CCSCC3)c(F)c2)C(=O)O1` [Sutezolid] here?
Answer: improved safety profile compared with linezolid

Question: And the “killing in ex vivo whole-blood culture test” value (Mtb [12])?
Answer: better time-dependent killing

Question: What about the “antimycobacterial activity versus linezolid” value (Mtb [13]) of the same compound?
Answer: better antimycobacterial activity

Question: And the “antimycobacterial activity versus linezolid” value (Mtb [14])?
Answer: better antimycobacterial activity

Question: With `COc1nc2ccc(Br)cc2cc1[C@@H](c1ccccc1)[C@@](O)(CCN(C)C)c1cccc2ccccc12` [bedaquiline] as the compound, how does the “improvement of the MIC of bedaquiline” value [10] read?
Answer: four- to eight-times

Question: What about the postantibiotic effect (Mtb [15]; bedaquiline with SQ109) of the same compound?
Answer: 14 h

Question: What about the postantibiotic effect (Mtb [15]; bedaquiline without SQ109) of the same compound?
Answer: 9 h

Question: Which “activity in mouse models” value (Mtb [7]) does the source give for `COc1c(N2CCNC(C)C2)c(F)cc2c(=O)c(C(=O)O)cn(C3CC3)c12` (stereo not drawn) [gatifloxacin] here?
Answer: comparable to INH

Question: With `CC(=O)NC[C@H]1CN(c2ccc(N3CCOCC3)c(F)c2)C(=O)O1` [linezolid] as the compound, how does the early bactericidal activity (Mtb [2]) read?
Answer: minimal killing activity
